US20240368135A1 (VERTEX PHARMACEUTICALS INCORPORATED, priority 2021, published 2024)
Read-outs that look alike come from different tables or passages of the source.

Target: human NaV 1.8 (Homo sapiens, UniProt Q9Y5Y9)
Test: E-VIPR assay detecting and measuring NaV inhibition properties
Format: cell-based
Settings: HEK cells expressing truncated human NaV 1.8
In short: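 HEK cells expressing truncated, fully active human NaV1.8, with KIR2.1 BacMam co-transduction, were loaded with CC2-DMPE/DiSBAC6(3) voltage-sensing dyes for 20 min at room temperature. Compounds were tested in 11-point 3-fold dilutions (300 nM top final), optionally with 25% human serum, under electrical stimulation with FRET read-out.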

[1] = no human serum, read-out: IC50 in the E-VIPR Assay

Chain of human NaV 1.8 (Q9Y5Y9 126-399 limits assumed): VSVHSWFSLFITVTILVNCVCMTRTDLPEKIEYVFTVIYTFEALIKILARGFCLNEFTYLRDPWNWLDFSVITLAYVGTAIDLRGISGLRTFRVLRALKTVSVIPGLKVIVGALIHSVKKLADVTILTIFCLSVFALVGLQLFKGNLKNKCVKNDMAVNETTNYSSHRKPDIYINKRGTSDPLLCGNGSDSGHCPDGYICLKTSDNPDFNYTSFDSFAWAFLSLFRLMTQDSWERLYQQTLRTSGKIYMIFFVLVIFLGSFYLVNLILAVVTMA
Chain of human NaV 1.8 (Q9Y5Y9 660-890 limits assumed): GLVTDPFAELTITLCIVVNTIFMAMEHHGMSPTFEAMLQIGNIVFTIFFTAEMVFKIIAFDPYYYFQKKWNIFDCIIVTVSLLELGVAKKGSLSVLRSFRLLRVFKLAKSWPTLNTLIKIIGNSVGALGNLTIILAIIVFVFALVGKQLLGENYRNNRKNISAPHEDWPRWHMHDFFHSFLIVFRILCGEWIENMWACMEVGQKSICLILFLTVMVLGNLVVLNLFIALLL
Chain of human NaV 1.8 (Q9Y5Y9 1148-1722 limits assumed): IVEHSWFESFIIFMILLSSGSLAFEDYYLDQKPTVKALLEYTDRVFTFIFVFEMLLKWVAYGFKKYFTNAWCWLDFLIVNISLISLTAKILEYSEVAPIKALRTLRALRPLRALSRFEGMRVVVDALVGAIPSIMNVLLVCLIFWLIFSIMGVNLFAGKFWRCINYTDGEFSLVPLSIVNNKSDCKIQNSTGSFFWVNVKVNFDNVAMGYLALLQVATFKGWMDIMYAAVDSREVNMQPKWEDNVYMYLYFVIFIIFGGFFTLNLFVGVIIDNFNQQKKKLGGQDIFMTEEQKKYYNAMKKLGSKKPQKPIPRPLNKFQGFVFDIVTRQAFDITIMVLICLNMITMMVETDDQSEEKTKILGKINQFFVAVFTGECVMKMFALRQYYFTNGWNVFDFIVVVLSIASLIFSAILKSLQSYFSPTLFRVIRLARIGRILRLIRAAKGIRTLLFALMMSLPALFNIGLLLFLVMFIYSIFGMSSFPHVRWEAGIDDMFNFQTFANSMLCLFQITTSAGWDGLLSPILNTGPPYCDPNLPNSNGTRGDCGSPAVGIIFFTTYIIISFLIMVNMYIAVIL

SMILES	IC50 [1] [nM]	IC50 (in the presence of human serum (compound numbers followed by *), read-out: IC50 in the E-VIPR Assay, performed in the presence of human serum) [nM]
COc1c([C@H]2[C@H](C(=O)Nc3cc(C(O)CN(C)C)ncc3F)O[C@@](C)(C(F)(F)F)[C@H]2C)ccc(F)c1F (single isomer, unassigned) [Compound 377]	< 10	
COc1c(C2C(C(=O)Nc3ccnc(C(O)CO)c3)OC(C)(C(F)(F)F)C2C)ccc(F)c1F (single isomer, unassigned) [Compound 46, 3-(3,4-difluoro-2-methoxy-phenyl)-N-[2-(1,2-dihydroxyethyl)-4-pyridyl]-4,5-dimethyl-5-(trifluoromethyl)tetrahydrofuran-2-carboxamide]	< 10	
Cc1nn(C(N)=O)cc1NC(=O)[C@@H]1O[C@@](C)(C(F)(F)F)[C@@H](C)[C@H]1c1ccc(F)c(F)c1OCCN1CCOCC1 [Compound 593, 4-((2R,3S,4S,5R)-3-(3,4-difluoro-2-(2-morpholinoethoxy)phenyl)-4,5-dimethyl-5-(trifluoromethyl)tetrahydrofuran-2-carboxamido)-3-methyl-1H-pyrazole-1-carboxamide]	10 to 100	
COc1c([C@H]2[C@H](C(=O)NCCc3c(C)noc3C)O[C@@](C)(C(F)(F)F)[C@H]2C)ccc(F)c1F [Compound 287, (2R,3S,4S,5R)-3-(3,4-difluoro-2-methoxyphenyl)-N-(2-(3,5-dimethylisoxazol-4-yl)ethyl)-4,5-dimethyl-5-(trifluoromethyl)tetrahydrofuran-2-carboxamide]	≥ 1000	
COc1c([C@H]2[C@H](C(=O)Nc3ccnc(N4C[C@@H](C)N(C)CC4=O)c3)O[C@@](C)(C(F)(F)F)[C@H]2C)ccc(F)c1F [Compound 470, (2R,3S,4S,5R)-3-(3,4-difluoro-2-methoxyphenyl)-N-(2-((R)-4,5-dimethyl-2-oxopiperazin-1-yl)pyridin-4-yl)-4,5-dimethyl-5-(trifluoromethyl)tetrahydrofuran-2-carboxamide]	< 10	

Other lines, results leading:

IC50 [1] [nM]	IC50 (in the presence of human serum (compound numbers followed by *), read-out: IC50 in the E-VIPR Assay, performed in the presence of human serum) [nM]	SMILES
< 10		COc1c([C@H]2[C@H](C(=O)Nc3cc(C4(N)CCOC4)ncc3F)O[C@@](C)(C(F)(F)F)[C@H]2C)ccc(F)c1F (single isomer, unassigned) [Compound 349, rel-(2R*,3S*,4S*,5R*)-N-(2-(3-aminotetrahydrofuran-3-yl)-5-fluoropyridin-4-yl)-3-(3,4-difluoro-2-methoxyphenyl)-4,5-dimethyl-5-(trifluoromethyl)-tetrahydrofuran-2-carboxamide]
10 to 100		CNC(=O)c1ccc(NC(=O)[C@H]2O[C@](C)(C(F)(F)F)[C@H](C)[C@@H]2c2ccc(F)c(C(F)F)c2OC)cn1 (stereo in doubt) [Compound 171, rel-5-((2S,3R,4R,5S)-3-(3-(difluoromethyl)-4-fluoro-2-methoxyphenyl)-4,5-dimethyl-5-(trifluoromethyl)tetrahydrofuran-2-carboxamido)-N-methylpicolinamide]
	100 to 1000	COc1cc(F)ccc1[C@@H]1C[C@](C)(C(F)(F)F)O[C@H]1C(=O)Nc1ccnc(S(C)(=O)=O)c1 (stereo in doubt) [Compound 714, rel-(2R,3S,5R)-3-(4-fluoro-2-methoxyphenyl)-5-methyl-N-(2-(methylsulfonyl)pyridin-4-yl)-5-(trifluoromethyl)tetrahydrofuran-2-carboxamide]
100 to 1000		COc1c([C@H]2[C@H](C(=O)Nc3ccnc(C(C)(O)CO)c3)OC(C)(C)[C@H]2C)ccc(F)c1F (single isomer, unassigned) [Compound 731]
< 10		COc1c([C@H]2[C@H](C(=O)Nc3ccc(C(N)=O)nc3)O[C@@](C)(C(F)(F)F)[C@H]2C)ccc(F)c1F [Compound 1, 5-((2R,3S,4S,5R)-3-(3,4-difluoro-2-methoxyphenyl)-4,5-dimethyl-5-(trifluoromethyl)tetrahydrofuran-2-carboxamido)picolinamide]
10 to 100		C[C@H]1[C@@H](c2ccc(F)c(F)c2OCCN2CCOCC2)[C@H](C(=O)Nc2cccnc2)O[C@@]1(C)C(F)(F)F [Compound 587, (2R,3S,4S,5R)-3-(3,4-difluoro-2-(2-morpholinoethoxy)phenyl)-4,5-dimethyl-N-(pyridin-3-yl)-5-(trifluoromethyl)tetrahydrofuran-2-carboxamide]
